From ChEMBL document CHEMBL4765252, “Design, synthesis, and biological evaluation of novel 4H-chromen-4-one derivatives as antituberculosis agents against multidrug-resistant tuberculosis” (Eur J Med Chem, 2020)
Converted amounts (≈) assume the structure as drawn.

Assays:
Format in all cases: functional
[1] = test system: Mycobacterium tuberculosis; experiment: Antitubercular activity against INH, SM, RFP, EMB, RBT, PAS, OLFX-resistant Mycobacterium tuberculosis 13946 assessed as inhibition of bacterial growth
[2] = test system: Mycobacterium tuberculosis; experiment: Antitubercular activity against INH, SM, RFP, EMB, PAS, Prothionamide 1321, Capreomycin-resistant Mycobacterium tuberculosis 14862 assessed as inhibition of bacterial growth
[3] = test system: Mycobacterium tuberculosis; experiment: Antitubercular activity against isoniazid, rifampicin, fluoroquinolones-resistant Mycobacterium tuberculosis assessed as inhibition of bacterial growth incubated for 6 days by MABA assay; conditions: 144 h, time 6 day

Row | SMILES | MIC [1] [µg/mL] | MIC [2] [µg/mL] | MIC [3] [µM]
1 | NNC(=O)c1ccncc1 [ISONIAZID] | 2.38 (≈ 17.3 µM) | > 10 | 
2 | CO[C@H]1/C=C/O[C@@]2(C)Oc3c(C)c(O)c4c(O)c(c(/C=N/N5CCN(C)CC5)c(O)c4c3C2=O)NC(=O)/C(C)=C\C=C\[C@H](C)[C@H](O)[C@@H](C)[C@@H](O)[C@@H](C)[C@H](OC(C)=O)[C@@H]1C [RIFAMPIN] | > 10 | > 10 | 
3 | CCOC(=O)c1c(NC(=O)c2c(F)c(F)c(F)c(F)c2F)sc2c1CCN(CC)C2 |  |  | 0.2 (≈ 0.0897 µg/mL)
4 | O=c1cc(-c2ccc(O)cc2)oc2ccc(O)c(CN3CCCC3)c12 | 3.81 (≈ 11.3 µM) | 3.82 (≈ 11.3 µM) | 
5 | O=c1cc(-c2ccc(O)cc2)oc2ccc(O)c(CN3CCC3)c12 | 1.76 (≈ 5.43 µM) | 1.64 (≈ 5.08 µM) | 
